Test results as given in article PMC9610999, “Itraconazole-Induced Increases in Gilteritinib Exposure Are Mediated by CYP3A and OATP1B” (Molecules, 2022).
Read-outs that look alike come from different tables or passages of the source.

Experiments:
OATP1B1 = molecular target: T1, OATP1B1 (Homo sapiens, UniProt Q9Y6L6); assay: Washout assay: recovery of OATP1B1 function (EβG uptake); type: cell-based; settings: within a 1-h period after 15 min treatment with gilteritinib 15 µM; 0.2 μM EβG
T1 construct: expressed in transfected cells; host or cells: HEK293
T1 sequence (Q9Y6L6 1-691): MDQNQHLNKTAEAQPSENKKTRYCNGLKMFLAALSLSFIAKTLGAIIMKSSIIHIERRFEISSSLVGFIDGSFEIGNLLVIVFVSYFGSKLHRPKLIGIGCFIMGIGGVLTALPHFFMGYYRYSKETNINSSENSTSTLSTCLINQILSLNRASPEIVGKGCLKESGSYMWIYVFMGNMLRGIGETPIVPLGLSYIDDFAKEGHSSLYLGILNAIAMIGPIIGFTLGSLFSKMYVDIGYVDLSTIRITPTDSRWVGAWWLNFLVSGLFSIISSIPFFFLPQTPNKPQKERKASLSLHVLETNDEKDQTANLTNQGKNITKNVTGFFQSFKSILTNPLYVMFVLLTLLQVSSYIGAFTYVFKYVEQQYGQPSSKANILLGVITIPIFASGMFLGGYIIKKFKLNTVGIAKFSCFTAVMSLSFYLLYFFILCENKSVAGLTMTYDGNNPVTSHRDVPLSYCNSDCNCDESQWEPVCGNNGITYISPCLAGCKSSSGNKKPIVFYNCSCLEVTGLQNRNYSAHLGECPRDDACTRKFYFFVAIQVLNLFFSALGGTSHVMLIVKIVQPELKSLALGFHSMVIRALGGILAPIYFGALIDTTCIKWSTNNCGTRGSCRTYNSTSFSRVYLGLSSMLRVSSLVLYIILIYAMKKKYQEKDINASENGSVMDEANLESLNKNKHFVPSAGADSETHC
Experimental: OATP1B1 overexpressing cells and vector control cells were plated in 12-well plates 24 h prior to experimentation. Cells were then washed with warm PBS and pre-incubated for 15 min with 0.5 mL DMSO or gilteritinib (15 μM) in DMEM at 37 °C. After pre-incubation, the supernatant was removed, and cells were washed with PBS. Compound-free medium was then added, and the cells were further incubated for periods of 15, 30, and 60 min. Next, the medium was removed, and cells were incubated with 0.5 mL of 0.2 μM EβG for 15 min. After that, the medium was removed and the cells were washed three times with ice-cold PBS, and 1 N NaOH was added to the wells to stop the rection. The next day 1 M HCL was added to each well and substrate concentrations were assessed using liquid scintillation counting. The resulting data were normalized to total protein as determined by a Pierce protein assay.

human OATP1B1 (SLCO1B1) = molecular target: T2, human OATP1B1 (SLCO1B1) (Homo sapiens, UniProt Q9Y6L6); assay: Transport inhibition assay: EβG uptake in OATP1B1 overexpressing HEK293 cells; type: cell-based
T2 construct: expressed in transfected cells; host or cells: HEK293
T2 sequence (Q9Y6L6 1-691): T1 sequence (Q9Y6L6 1-691)
Experimental: Human embryonic kidney (HEK293) cells stably transfected with human OATP1B1 (SLCO1B1) cDNA, or an empty control vector were established and cultured as previously described. Cells were maintained in DMEM supplemented with 10% FBS, 50 µg/mL hygromycin B, 15 µg/mL blasticidin, and maintained in a humidified incubator at 37 °C with 5% CO2. Prior to plating, 24-well tissue culture plates (Thermo Fisher Scientific) were coated with poly-d-lysine. Seeding media was prepared using phenol red-free DMEM with 10% FBS with no selection agents. To the seeding media, […] of doxycycline was added to induce expression of OATP1B1.
OATP1B1 overexpressing cells and vector control cells were plated in 24-well tissue culture plates at a volume of 0.5 mL (containing 2 × 10^6 cells/mL) per well. Plates were returned to an incubator at 37 °C and transport assays were conducted 24 h later. Transport activity was measured using EβG, a prototypical substrate of OATP1B1. Experiments were conducted using phenol red- and serum-free DMEM. Intracellular levels of total radioactivity originating from EβG were assessed by liquid scintillation counting. The resulting counts were normalized to total protein levels as determined by a Pierce protein assay. The influence of gilteritinib, itraconazole, keto-itraconazole, or hydroxy-itraconazole on OATP1B1-mediated transport was assessed following a 15 min pre-incubation at various concentrations of test inhibitors followed by co-incubation of test inhibitors with EβG. Inhibition of transport activity by gilteritinib was determined by comparing the accumulation of EβG in the presence of gilteritinib, itraconazole, keto-itraconazole, or hydroxy-itraconazole to that of EβG in the presence of only the control vehicle, DMSO. The final concentration of DMSO in media was less than 0.2% in all in vitro experiments.

[1] = cited from earlier work
OATP1B2 = molecular target: T3, OATP1B2 (Mus musculus, UniProt Q9JJL3); assay: Transport inhibition assay: 8-FcA uptake in OATP1B2 overexpressing HEK293 cells; type: cell-based; settings: OATP1B2 overexpressing HEK293 cells vs vector control; fluorescent probe 8-FcA; read-out: IC50, inhibition of OATP1B2 function
T3 construct: expressed in transfected cells; host or cells: HEK293
T3 sequence (Q9JJL3 1-689): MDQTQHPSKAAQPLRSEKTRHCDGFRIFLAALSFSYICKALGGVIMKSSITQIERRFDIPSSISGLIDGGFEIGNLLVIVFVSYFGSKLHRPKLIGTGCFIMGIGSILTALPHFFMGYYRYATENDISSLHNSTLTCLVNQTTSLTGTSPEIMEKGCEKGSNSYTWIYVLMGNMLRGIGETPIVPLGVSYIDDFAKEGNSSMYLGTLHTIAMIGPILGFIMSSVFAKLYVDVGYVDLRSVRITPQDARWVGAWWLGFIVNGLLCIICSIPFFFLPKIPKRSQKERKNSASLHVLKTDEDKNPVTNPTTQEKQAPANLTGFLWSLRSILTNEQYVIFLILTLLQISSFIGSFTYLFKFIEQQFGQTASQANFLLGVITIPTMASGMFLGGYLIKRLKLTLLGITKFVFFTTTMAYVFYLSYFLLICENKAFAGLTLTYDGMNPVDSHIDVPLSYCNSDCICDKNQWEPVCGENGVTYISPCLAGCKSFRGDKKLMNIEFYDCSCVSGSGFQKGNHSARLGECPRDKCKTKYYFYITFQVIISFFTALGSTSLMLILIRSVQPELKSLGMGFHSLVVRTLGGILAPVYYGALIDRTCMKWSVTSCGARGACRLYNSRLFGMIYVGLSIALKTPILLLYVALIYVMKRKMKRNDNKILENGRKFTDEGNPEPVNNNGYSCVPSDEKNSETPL
Experimental: Transport inhibition assays using 8-(2-[fluoresceinyl]-aminoethylthio)-adenosine-3′,5′-cyclic-monophosphate (8-FcA) were completed as previously described. OAT1B2 overexpressing cells and vector control cells were grown to confluency in a 96-well plate. Cells were washed, then incubated for 15 min with 100 μL phenol red-free DMEM containing gilteritinib or vehicle (DMSO). The media was removed, then cells were incubated with 45 μL media containing 25 μM 8-FcA for 30 min. The media was removed and cells were washed three times with ice cold PBS. Fluorescence was measured on a plate reader at excitation and emission wavelengths of 485 and 535 nm, respectively. Cells were lysed with 0.2% nitric acid at 4 °C overnight and a Pierce protein assay was used to normalize the data to total protein.

For `CCc1nc(C(N)=O)c(Nc2ccc(N3CCC(N4CCN(C)CC4)CC3)c(OC)c2)nc1NC1CCOCC1` [Gilteritinib], the “OATP1B1 transport recovered after washout” value (OATP1B1) was 75%, the “Mechanism of inhibition of OATP1B transport of EβG” value (human OATP1B1 (SLCO1B1); Dixon plot) was “noncompetitively inhibits” and the IC50 (human OATP1B1 (SLCO1B1); OATP1B1 overexpressing HEK293 cells vs vector control, radiolabeled EβG, 15 min pre-incubation, read-out: IC50, inhibition of OATP1B1-mediated cellular accumulation of EβG) was 2230 nM. For the same compound, the Ki (human OATP1B1 (SLCO1B1); gilteritinib 0.3–8.3 µM, EβG 0.2, 2, 20 µM, estimated, read-out: Ki (inhibition constant), EβG uptake by OATP1B1, Dixon plot) was 1600 nM, the Maximum tolerated dose ([1]; ref 4) was 300 mg and the Maximum tolerated dose ([1]; ref 29) was 200 mg. It also gave an IC50 (OATP1B2) of 1830 nM.
